# How the values were obtained:
# Format in all cases: in vivo, Mouse/C57BL/6
# BLM-induced fibrosis [1] = test: Bleomycin (BLM)-induced lung fibrosis in mice: Gomori's Trichrome score of lung sections; details: for Trichrome score (average) / % reduction in fibrosis: day 21; for Trichrome score (average): BLM 2.5 U/kg intratracheal, p.o. once daily 14 days from day 7, mg/kg: Pirfenidone 300, Bromantane 20, Ifenoprodil 30, Radiprodil 30, Bemithyl 200, Dexamethasone 0.25, Repirinast 90, Normal 1.00, Vehicle 4.59; for Trichrome score response versus BLM-vehicle group (in words) / percent reduction in lung fibrosis in comparison to the BLM-vehicle group (in words): doses as Table 1, order: Dexamethasone and Repirinast, followed by Ifenprodil and Radiprodil; for % reduction in fibrosis: from Trichrome scores relative to vehicle and normal groups, doses as Table 1, p.o. once daily 14 days; for improvement in lung fibrosis, loss of body weight, Trichrome score and mortality as compared to BLM-vehicle (conclusion, in words): oral administration, Dexamethasone 0.25, Repirinast 90, Ifenprodil 30, Radiprodil 30 mg/kg
# Description: (§1) The mouse species or strain was Mouse/C57BL/6, the mice being 8-10 week old males. Nine groups of 10 mice each were obtained from Charles River Laboratories. Each group was randomized based on body weight. Bleomycin (BLM) was obtained from Euroasias.
# (§2) The mice were anesthetized with isoflurane/O2 mixture. Bleomycin (BLM) was then administered to the mice intratracheally (PennCentury)—single bolus, at 2.5 U/kg body weight in 50 μl sterile saline.
# (§3) Seven days after the bleomycin is administered, and fibroblasts have generally proliferated, six of the nine groups of IT bleomycin challenged mice were be dosed orally (p.o.) once a day with Bromantane, Ifenoprodil, Radiprodil, Bemithyl, Dexamethasone, or Repirinast at specified amounts per kg of body weight (mg/kg) daily for 14 consecutive days. The amounts are set out in Table 1 below. The vehicle used was 0.5% carboxymethyl cellulose (CMC). Prifenidone was also prepared in 0.5% CMC and administrated orally once a day to one of the nine IT bleomycin challenged mice groups beginning for 14 consecutive days. Vehicle and no-BLM control groups received 0.5% CMC orally for 14 consecutive days.
# On day 21 of the study, 4 hours after the last dose, the mice were sacrificed and plasma was collected and frozen for cytokine analysis (testing for IL-6, IL-12, TGFβ, IL-13 proteins, or fibrosis markers). Bronchoalveolar lavage fluid (BALF) was collected and frozen for optional cytokine analyses and cell counts pending the initial data. The lungs were then excised, weighed and fixed in formalin. Gomori's Trichrome stain, a histological stain, was used to determine collagen content.
# Trichrome Score: A trichrome score measures the level of scarring to the lungs caused by the disease. The greater the trichrome score, the greater the scarring.
# Formalin fixed lung samples were submitted to affiliated histopathology laboratory for histopathological analysis subjected Gomori's Trichrome stain, a histological stain, which was used to determine collagen content.
# Each lung was divided into ten sections. All ten sections were stained and evaluated. A board certified veterinarian pathologist assessed the presence of lung fibrosis and severity score—The expression of collagen (associated with fibrosis) is determined from the ratio of the stained area versus the total area of the lung section.
# BLM-induced fibrosis [2] = test: Bleomycin (BLM)-induced lung fibrosis in mice: mortality rate over 21 days; details: doses as Table 1; for Fatality Number: deaths/mice per group over 21 days, Vehicle 2/10; for percent survival (in words): order: Dexamethasone and Repirinast, followed by Ifenprodil and Radiprodil; for Percent Fatality: over 21 days, Vehicle 20%
# Description: as §1, §2, §3
# Mortality Rate: the mortality rate in each group was also observed over 21 days.
# [3] = Bleomycin (BLM)-induced lung fibrosis in mice: body weight over 21 days; details: for Percent Change in Body Weight / Body Weight: doses as Table 1; for Body Weight: group mean; for changes in body weight as compared to the BLM-vehicle group (in words): doses as Table 1, p.o. once daily
# Description: as §1, §2, §3
# Body Weight: The body weights were measured over 21 days using a laboratory balance.
SMILES,Trichrome score (average) (BLM-induced fibrosis [1]),Trichrome score response versus BLM-vehicle group (in words) (BLM-induced fibrosis [1]),% reduction in fibrosis (BLM-induced fibrosis [1]),Fatality Number (BLM-induced fibrosis [2]),Percent Fatality (BLM-induced fibrosis [2]),Percent Change in Body Weight ([3]; 7-Nov),Body Weight ([3]; 7-Nov),Percent Change in Body Weight ([3]; 8-Nov),Body Weight ([3]; 8-Nov),Percent Change in Body Weight ([3]; 9-Nov),Body Weight ([3]; 9-Nov),Percent Change in Body Weight ([3]; 12-Nov),Body Weight ([3]; 12-Nov),Percent Change in Body Weight ([3]; 14-Nov),Body Weight ([3]; 14-Nov),Percent Change in Body Weight ([3]; 16-Nov),Body Weight ([3]; 16-Nov),Percent Change in Body Weight ([3]; 20-Nov),Body Weight ([3]; 20-Nov),Percent Change in Body Weight ([3]; 22-Nov),further results
C[C@@H]1C[C@H]2[C@@H]3CCC4=CC(=O)C=C[C@]4(C)[C@@]3(F)[C@@H](O)C[C@]2(C)[C@@]1(O)C(=O)CO [Dexamethasone],2.45,response was better,59.6%,2/10,20%,0.0%,24.3 g,−0.2%,24.1 g,−0.6%,23.7 g,−1.9%,22.4 g,−1.6%,22.7 g,−0.9%,23.4 g,−1.5%,22.7 g,−0.1%,"percent reduction in lung fibrosis in comparison to the BLM-vehicle group (in words) (BLM-induced fibrosis [1]): higher; improvement in lung fibrosis, loss of body weight, Trichrome score and mortality as compared to BLM-vehicle (conclusion, in words) (BLM-induced fibrosis [1]): showed improvement; percent survival (in words) (BLM-induced fibrosis [2]): higher; Body Weight ([3]; 22-Nov): 24.2 g; Percent Change in Body Weight ([3]; 26-Nov): 0.3%; Body Weight ([3]; 26-Nov): 24.5 g; Percent Change in Body Weight ([3]; 28-Nov): 0.7%; Body Weight ([3]; 28-Nov): 25.0 g; changes in body weight as compared to the BLM-vehicle group (in words) [3]: showed improvement beginning on Day 5"
"Cc1ccc(=O)n(-c2ccccc2)c1 [Pirfenidone (+), 5-methyl-1-phenylpyridin-2(1H)-one]",4.09,minimal improvement,13.9%,2/10,20%,0.0%,24.0 g,0.3%,24.2 g,−0.5%,23.5 g,−2.2%,21.7 g,−2.9%,21.0 g,−3.2%,20.8 g,−3.7%,20.3 g,−2.9%,Body Weight ([3]; 22-Nov): 21.1 g; Percent Change in Body Weight ([3]; 26-Nov): −3.1%; Body Weight ([3]; 26-Nov): 20.9 g; Percent Change in Body Weight ([3]; 28-Nov): −3.2%; Body Weight ([3]; 28-Nov): 20.7 g
"O=C(Nc1ccc2[nH]c(=O)oc2c1)C(=O)N1CCC(Cc2ccc(F)cc2)CC1 [Radiprodil, 2-[4-[(4-fluorophenyl)methyl]piperidin-1-yl]-2-oxo-N-(2-oxo-3H-1,3-benzoxazol-6-yl)acetamide]",3.45,response was better,31.8%,2/10,20%,0.0%,23.6 g,0.0%,23.6 g,−0.4%,23.2 g,−2.3%,21.3 g,−1.8%,21.8 g,−1.0%,22.6 g,−1.2%,22.4 g,−0.3%,"percent reduction in lung fibrosis in comparison to the BLM-vehicle group (in words) (BLM-induced fibrosis [1]): higher; improvement in lung fibrosis, loss of body weight, Trichrome score and mortality as compared to BLM-vehicle (conclusion, in words) (BLM-induced fibrosis [1]): showed improvement; percent survival (in words) (BLM-induced fibrosis [2]): higher; Body Weight ([3]; 22-Nov): 23.3 g; Percent Change in Body Weight ([3]; 26-Nov): 0.3%; Body Weight ([3]; 26-Nov): 24.0 g; Percent Change in Body Weight ([3]; 28-Nov): 0.4%; Body Weight ([3]; 28-Nov): 24.0 g; changes in body weight as compared to the BLM-vehicle group (in words) [3]: showed improvement beginning on Day 5"

# Source: patent publication US12728121B2, “Compositions and methods for treating idiopathic pulmonary fibrosis” (Seyltx, Inc., priority 2019, dated 2026)
